In brackets after ≈: the same amount, converted by molar mass.
Columns and labels:
Oryctolagus sp. = settings: developmental; development
Colinus virginianus = settings: for LD50: acute, oral, mortality
Daphnia magna = settings: chronic/long-term; duration: 21 days; reproduction
Rattus norvegicus = settings: for NOAEL: body weight
Apis mellifera = settings: acute; duration: 48 hours; dermal; mortality
Tagia sp. = settings: acute; duration: 14 days; mortality
Canidae = settings: oral, Dog Other, organ weight
Aphidius rhopalosiphi = assay: LR50; higher = less toxic; settings: not reported; mortality

For `CCCC(=NOCC)C1=C(O)CC(C2CCCSC2)CC1=O` (stereo unspecified) [Cycloxydim], the LC50 (Oncorhynchus mykiss; acute, duration: 96 hours, mortality) was 220 µg/mL (≈ 676 µM), the NOEC (Oncorhynchus mykiss; chronic/long-term, duration: 28 days, growth) was 21.5 mg/L and the NOAEL (Oryctolagus sp.) was 200 mg/kg-day. The LD50 (Colinus virginianus; diet) was 497 mg/kg-day, the LD50 (Colinus virginianus) was > 2000 mg/kg-day and the NOEC (Colinus virginianus; reproduction developmental) was 65.4 mg/kg-day. It also gave an NOEC (Daphnia magna) of 62.5 mg/L, an LD50 (Rattus norvegicus; acute, oral, mortality) of 3830 mg/kg-day and an NOAEL (Rattus norvegicus; chronic, duration: 18 months) of 7 mg/kg-day. For the same compound, the NOAEL (Rattus norvegicus; chronic, duration: 24 months) was 7 mg/kg-day, the NOAEL (Rattus norvegicus; reproduction developmental) was 9.7 mg/kg-day and the LD50 (Apis mellifera) was > 100 µg/piece. The LC50 (Tagia sp.) was > 1000 mg/kg, the NOAEL (Canidae; chronic, duration: 1 years) was 10 mg/kg-day and the NOAEL (Canidae; subchronic, duration: 3 months) was 10 mg/kg-day. For the same compound, the LR50 (Aphidius rhopalosiphi) was 90.2 g/ha.
